# Data published in patent publication EP0048614B1, “1-N-acylated and 1-N-alkylated derivatives of 4-0-substituted -2-deoxystreptamine aminoglycosides” (ELI LILLY AND COMPANY, priority 1980, dated 1982).
# Several values for one entry are separate records, joined by “and”; a condition that tells them apart may be missing. Equal entries are not always repeated. Where two headings read alike, the source gives them in different places.
# Columns and labels:
# [1] = test system: Staphylococcus aureus 3055; assay: Subcutaneous therapy of experimental bacterial infection in mice (ED50); format: in vivo; conditions: Staphylococcus aureus, 3055, sc
# Method: Table II illustrates the effective dose (ED50, the effective dose to protect 50 percent of the test animals) for representative compounds of this invention against an experimental bacterial infection in mice.
# The ED50 values were determined as described by W. E. Wick et al., Journal of Bacteriology, 81 [No. 2], 233-235 (1961).
# B. subtilis X12 = assay: Bioautography of thin layer chromatography plate; format: cell-based; conditions: TLC plate of the reaction mixture against B. subtilis X12
# Method: Apramycin (54 mg, 0.1 mmol) was dissolved in water (1 ml). Zinc acetate dihydrate (100 mg, 0.4 mmol) was added to this solution and the mixture was briefly sonicated to disperse crystals of zinc acetate. The ' mixture was diluted with dimethylformamide (5 ml), 1-iodo-n-butane (0.115 ml), 1 mmol) was added and this reaction mixture was stirred at room temperature for 4 days.
# Escherichia coli N10 = assay: MIC, standard agar dilution test; format: cell-based; conditions: agar dilution
# Excerpt: (§1) The antibacterial activity of the deprotected compounds of this invention is illustrated by the following in vitro and in vivo test data obtained with representative compounds. In Table I, the minimum inhibitory concentration (MIC) for representative compounds against a wide range of gram-positive and gram-negative bacteria is presented. The MIC values were obtained by the standard agar dilution test.
# Hemophilus influenzae 76 = assay: MIC, standard agar dilution test; format: cell-based
# Excerpt: as §1
# Serratia marcescens X99 = assay: MIC, standard agar dilution test; format: cell-based
# Excerpt: as §1
# Proteus rettgeri PR7 = assay: MIC, standard agar dilution test; format: cell-based
# Excerpt: as §1
# [2] = test system: Staphylococcus aureus X400; assay: MIC, standard agar dilution test; format: cell-based
# Excerpt: as §1
# [3] = test system: Staphylococcus aureus X1.1; assay: MIC, standard agar dilution test; format: cell-based; conditions: Staphylococcus aureus X1.1, agar dilution
# Excerpt: as §1
# [4] = test system: Enterobacter aerogenes X68; assay: MIC, standard agar dilution test; format: cell-based
# Excerpt: as §1
# [5] = test system: Hemophilus influenzae C.L.; assay: MIC, standard agar dilution test; format: cell-based; conditions: Hemophilus influenzae C.L.
# Excerpt: as §1
# Escherichia coli X563 = assay: Standard disc-plate method, zone of inhibition against apramycin-resistant strain; format: cell-based; conditions: 15 mcg/disc; apramycin-resistant E. coli X563; one value for each of two test runs per compound; listed as 2
# Excerpt: Table III, shown below, illustrates the in vitro activity of 1-N-(S-y-amino-a-hydroxybutyryl)apramycin, 1-N-(RS-y-amino-a-hydroxybutyryl)apramycin, and 1-N-(S-y-amino-a-hydroxybutyryl)nebramine against an apramycin resistant strain of E. coli. The results below were obtained using the standard disc-plate method. The numerical values are the diameters in millimeters of the zones of inhibition observed against this bacterium. Compounds substituted with the y-amino-a-hydroxybutyryl and analogous side chains are useful in treating infections caused by apramycin resistant bacteria such as the one above.
# The test organism (E. coli X563) used in the experiments summarized in Table III is resistant to apramycin due to a 3-N-acetyltransferase which enzymatically inactivates apramycin.
# [6] = test system: Streptococcus pneumoniae Park I; assay: MIC, standard agar dilution test; format: cell-based; conditions: Streptococcus pneumoniae Park I; agar dilution; read-out: Minimum Inhibitory Concentration
# Excerpt: as §1
# [7] = test system: Pseudomonas aeruginosa X528; assay: MIC, standard agar dilution test; format: cell-based; conditions: Pseudomonas aeruginosa X528; agar dilution; read-out: Minimum Inhibitory Concentration
# Excerpt: as §1
# [8] = test system: Staphylococcus epidermidis EPI2; assay: MIC, standard agar dilution test; format: cell-based; conditions: Staphylococcus epidermidis EPI2; agar dilution; read-out: Minimum Inhibitory Concentration
# Excerpt: as §1
# Proteus morganii PR15 = assay: MIC, standard agar dilution test; format: cell-based; conditions: Morganella morganii; Proteus morganii PR15; agar dilution; read-out: Minimum Inhibitory Concentration
# Excerpt: as §1
# [9] = test system: Klebsiella pneumoniae X26; assay: MIC, standard agar dilution test; format: cell-based; conditions: Klebsiella pneumoniae X26; agar dilution; read-out: Minimum Inhibitory Concentration
# Excerpt: as §1
# [10] = test system: Bordetella bronchiseptica 16; assay: MIC, standard agar dilution test; format: cell-based; conditions: Bordetella bronchiseptica 16; agar dilution; read-out: Minimum Inhibitory Concentration
# Excerpt: as §1
# Shigella sonnei N9 = assay: MIC, standard agar dilution test; format: cell-based; conditions: read-out: Minimum Inhibitory Concentration
# Excerpt: as §1
# [11] = test system: Streptococcus group D 9960; assay: MIC, standard agar dilution test; format: cell-based; conditions: D9960; Streptococcus group D 9960; agar dilution; read-out: Minimum Inhibitory Concentration
# Excerpt: as §1
# Escherichia coli EC14 = assay: MIC, standard agar dilution test; format: cell-based; conditions: Escherichia coli EC14; agar dilution; read-out: Minimum Inhibitory Concentration
# Excerpt: as §1
# [12] = test system: Staphylococcus epidermidis EPI1; assay: MIC, standard agar dilution test; format: cell-based; conditions: Staphylococcus epidermidis EPI1; agar dilution; read-out: Minimum Inhibitory Concentration
# Excerpt: as §1
# [13] = test system: Streptococcus pyogenes C203; assay: MIC, standard agar dilution test; format: cell-based; conditions: Streptococcus pyogenes C203; agar dilution; read-out: Minimum Inhibitory Concentration
# Excerpt: as §1
# Proteus rettgeri C24 = assay: MIC, standard agar dilution test; format: cell-based; conditions: Providencia rettgeri; Proteus rettgeri C24; agar dilution; read-out: Minimum Inhibitory Concentration
# Excerpt: as §1
# [14] = test system: Enterobacter aerogenes EB17; assay: MIC, standard agar dilution test; format: cell-based; conditions: Klebsiella aerogenes; Enterobacter aerogenes EB17; agar dilution; read-out: Minimum Inhibitory Concentration
# Excerpt: as §1
# Enterobacter cloacae EB5 = assay: MIC, standard agar dilution test; format: cell-based; conditions: Enterobacter cloacae EB5; agar dilution; read-out: Minimum Inhibitory Concentration
# Excerpt: as §1
# [15] = test system: Salmonella heidelberg X514; assay: MIC, standard agar dilution test; format: cell-based; conditions: Salmonella enterica; Salmonella heidelberg X514; agar dilution; read-out: Minimum Inhibitory Concentration
# Excerpt: as §1
# [16] = test system: Klebsiella pneumoniae KAE; assay: MIC, standard agar dilution test; format: cell-based; conditions: Klebsiella pneumoniae KAE; agar dilution; read-out: Minimum Inhibitory Concentration
# Excerpt: as §1
# [17] = test system: Pseudomonas aeruginosa Ps18; assay: MIC, standard agar dilution test; format: cell-based; conditions: Pseudomonas aeruginosa Ps18; agar dilution; read-out: Minimum Inhibitory Concentration
# Excerpt: as §1
# [18] = test system: Streptococcus group D X66; assay: MIC, standard agar dilution test; format: cell-based; conditions: DX66; Streptococcus group D X66; agar dilution; read-out: Minimum Inhibitory Concentration
# Excerpt: as §1
# [19] = test system: Pseudomonas aeruginosa X239; assay: MIC, standard agar dilution test; format: cell-based; conditions: Pseudomonas aeruginosa X239; agar dilution; read-out: Minimum Inhibitory Concentration
# Excerpt: as §1
# [20] = test system: Staphylococcus aureus S13E; assay: MIC, standard agar dilution test; format: cell-based; conditions: read-out: Minimum Inhibitory Concentration
# Excerpt: as §1
# [21] = test system: Staphylococcus aureus V41; assay: MIC, standard agar dilution test; format: cell-based; conditions: Staphylococcus aureus V41; agar dilution; read-out: Minimum Inhibitory Concentration
# Excerpt: as §1
# Proteus inconstans PR33 = assay: MIC, standard agar dilution test; format: cell-based; conditions: Providencia alcalifaciens; Proteus inconstans PR33; agar dilution; read-out: Minimum Inhibitory Concentration
# Excerpt: as §1
# [22] = test system: Enterobacter cloacae 265A; assay: MIC, standard agar dilution test; format: cell-based; conditions: Enterobacter cloacae 265A; agar dilution; read-out: Minimum Inhibitory Concentration
# Excerpt: as §1
# [23] = test system: Enterobacter aerogenes C32; assay: MIC, standard agar dilution test; format: cell-based; conditions: Klebsiella aerogenes; Enterobacter aerogenes C32; agar dilution; read-out: Minimum Inhibitory Concentration
# Excerpt: as §1
# [24] = test system: Salmonella typhimurium 1335; assay: MIC, standard agar dilution test; format: cell-based; conditions: Salmonella enterica; Salmonella typhimurium 1335; agar dilution; read-out: Minimum Inhibitory Concentration
# Excerpt: as §1
# Serratia marcescens SE3 = assay: MIC, standard agar dilution test; format: cell-based; conditions: Serratia marcescens SE3; agar dilution; read-out: Minimum Inhibitory Concentration
# Excerpt: as §1
# [25] = test system: Citrobacter freundii CF17; assay: MIC, standard agar dilution test; format: cell-based; conditions: Citrobacter freundii CF17; agar dilution; read-out: Minimum Inhibitory Concentration
# Excerpt: as §1
# Escherichia coli TEM = assay: MIC, standard agar dilution test; format: cell-based; conditions: read-out: Minimum Inhibitory Concentration
# Excerpt: as §1
compound,measurement,setting,value
CNC1C(OC2OC(CO)C(N)C(O)C2O)OC2CC(N)C(OC3C(N)CC(NC(=O)C(O)CCN)C(O)C3O)OC2C1O (stereo not drawn),ED50,"[1]; read-out: Effective Dose (ED50), mg/kg × 2 subcutaneous doses at 1 and 5 hours post infection, mice challenged with 331 LD50's",7.1 mg/kg
NCC[C@H](O)C(=O)N[C@@H]1C[C@H](N)[C@@H](O[C@H]2O[C@H](CN)[C@@H](O)C[C@H]2N)[C@H](O)[C@H]1O,ED50,"[1]; mg/kg × 2 subcutaneous doses at 1 and 5 hours post infection, mice challenged with 1,794 LD50's, read-out: Effective Dose (ED50)",8.75 mg/kg
CCCCNC1CC(N)C(OC2OC3C(CC2N)OC(OC2OC(CO)C(N)C(O)C2O)C(NC)C3O)C(O)C1O (stereo not drawn) [1-N-(n-butyl)apramycin],zone of inhibition (bioautography),B. subtilis X12,good zone of inhibition
C=CCNC1CC(N)C(OC2OC3C(CC2N)OC(OC2OC(CO)C(N)C(O)C2O)C(NC)C3O)C(O)C1O (stereo not drawn) [1-N-allylapramycin],zone of inhibition (bioautography),B. subtilis X12,good zone of inhibition
CNC1C(OC2OC(CO)C(N)C(O)C2O)OC2CC(N)C(OC3C(N)CC(NCc4ccccc4)C(O)C3O)OC2C1O (stereo not drawn) [1-N-benzylapramycin],zone of inhibition (bioautography),B. subtilis X12,zone of inhibition
CCCCNC1CC(N)C(O)C(O)C1OC1OC2C(CC1N)OC(OC1OC(CO)C(N)C(O)C1O)C(NC)C2O (stereo not drawn) [3-N-(n-butyl)apramycin],zone of inhibition (bioautography),B. subtilis X12,not
"CNC1C(OC2OC(CO)C(N)C(O)C2O)OC2CC(N)C(OC3C(N)CC(NC(=O)C(O)CCN)C(O)C3O)OC2C1O (stereo not drawn) [Test Compound 2, 1-N-(RS-γ-amino-α-hydroxybutyryl)apramycin]",Minimum Inhibitory Concentration,Escherichia coli N10; Escherichia coli N10,16 µg/mL
same,Minimum Inhibitory Concentration,Hemophilus influenzae 76; Hemophilus influenzae 76,32 µg/mL
same,Minimum Inhibitory Concentration,Serratia marcescens X99; Serratia marcescens X99,16 µg/mL
same,Minimum Inhibitory Concentration,Proteus rettgeri PR7; Proteus rettgeri PR7,4 µg/mL
same,Minimum Inhibitory Concentration,[2]; Staphylococcus aureus X400,64 µg/mL
same,Minimum Inhibitory Concentration,[3],8 µg/mL
same,Minimum Inhibitory Concentration,[4]; Enterobacter aerogenes X68,16 µg/mL
same,Minimum Inhibitory Concentration,[5],32 µg/mL
same,Zone of Inhibition (diameter in mm),Escherichia coli X563,12.5 mm and 13.6 mm
"NCC[C@H](O)C(=O)N[C@@H]1C[C@H](N)[C@@H](O[C@H]2O[C@H](CN)[C@@H](O)C[C@H]2N)[C@H](O)[C@H]1O [Test Compound 5, 1-N-(S-γ-amino-α-hydroxybutyryl)nebramine]",MIC,"Escherichia coli N10; Escherichia coli, N10, Escherichia coli N10, read-out: Minimum Inhibitory Concentration",8 µg/mL
same,MIC,"Hemophilus influenzae 76; Haemophilus influenzae, Hemophilus influenzae 76, read-out: Minimum Inhibitory Concentration",16 µg/mL
same,MIC,[6],16 µg/mL
same,MIC,[7],64 µg/mL
same,MIC,[8],4 µg/mL
same,MIC,"Serratia marcescens X99; Serratia marcescens X99, read-out: Minimum Inhibitory Concentration",8 µg/mL
same,MIC,Proteus morganii PR15,32 µg/mL
same,MIC,[9],4 µg/mL
same,MIC,"Proteus rettgeri PR7; Providencia rettgeri, Proteus rettgeri PR7, read-out: Minimum Inhibitory Concentration",8 µg/mL
same,MIC,[10],32 µg/mL
same,MIC,Shigella sonnei N9,16 µg/mL
same,MIC,[11],> 128 µg/mL
same,MIC,Escherichia coli EC14,16 µg/mL
same,MIC,[12],8 µg/mL
same,MIC,[13],16 µg/mL
same,MIC,Proteus rettgeri C24,8 µg/mL
same,MIC,[14],8 µg/mL
same,MIC,"[2]; Staphylococcus aureus X400, read-out: Minimum Inhibitory Concentration",64 µg/mL
same,MIC,Enterobacter cloacae EB5,16 µg/mL
same,MIC,[3]; read-out: Minimum Inhibitory Concentration,8 µg/mL
same,MIC,[15],16 µg/mL
same,MIC,[16],8 µg/mL
same,MIC,[17],32 µg/mL
same,MIC,"[4]; Klebsiella aerogenes, Enterobacter aerogenes X68, read-out: Minimum Inhibitory Concentration",8 µg/mL
same,MIC,[18],> 128 µg/mL
same,MIC,"[5]; Haemophilus influenzae, read-out: Minimum Inhibitory Concentration",16 µg/mL
same,MIC,[19],32 µg/mL
same,MIC,[20],8 µg/mL
same,MIC,[21],8 µg/mL
same,MIC,Proteus inconstans PR33,8 µg/mL
same,MIC,[22],32 µg/mL
same,MIC,[23],8 µg/mL
same,MIC,[24],8 µg/mL
same,MIC,Serratia marcescens SE3,16 µg/mL
same,MIC,[25],16 µg/mL
same,MIC,Escherichia coli TEM,2 µg/mL
